Data from patent publication US20060269605A1, “Multilayer pharmaceutical dosage form containing a substance that acts in a modulatory manner with regard to the release of active substances” (Roehm Gmbh & Co. KG, priority 2003, published 2006).

Assay: active ingredient delivery in PhEur phosphate buffer of pH 6.8 in a USP dissolution tester
Format: physicochemical
Settings: modulator as core of theophylline pellets coated with EUDRAGIT RS, no inner controlling layer, versus microcrystalline cellulose core (Example 5)

effect of the substance having a modulating effect on active ingredient delivery | Compound
accelerating effect | O=C([O-])CCC(=O)[O-].[Na+].[Na+] [sodium succinate]
accelerating effect | CC(=O)[O-].[Na+] [sodium acetate]
accelerating effect | O=C(O)CC(O)(CC(=O)O)C(=O)O [citric acid]

Compound | effect of the substance having a modulating effect on active ingredient delivery
[Cl-].[Na+] [sodium chloride] | reducing effect
